The NIST ThermoML archive (doi:10.1021/je800463k)
Numbers after ± are expanded uncertainties.

Experiment: mn = molality of the nth substance listed, in mol/kg
Conditions: 101 kPa, Liquid; for mass density: Pycnometric method; for electrical conductivity: Frequency=0.001 MHz, Alternating current cell with electrodes; for speed of sound: Frequency=2 MHz

[Mg+2].[O-][Cl+3]([O-])([O-])[O-].[O-][Cl+3]([O-])([O-])[O-] [magnesium perchlorate] + CO
Conditions	electrical conductivity [S/m]	mass density [kg/m3]	speed of sound [m/s]	viscosity [mPa·s]
301.65 K, m1 = 0.0925	–	796.87 ± 4.6	–	–
302.7 K, m1 = 0.3228	–	824.56 ± 15	–	–
302.75 K, m1 = 0.2872	–	820.44 ± 13	–	–
302.75 K, m1 = 2	–	1006.5 ± 72	–	–
302.9 K, m1 = 0.078	–	794.53 ± 4	–	–
303.05 K, m1 = 0.1673	–	805.22 ± 8.2	–	–
303.15 K, m1 = 0.0542	0.3785 ± 0.0001	–	1094.8 ± 6.4	0.5431 ± 0.03
303.15 K, m1 = 0.078	0.5625 ± 0.0001	–	1101.6 ± 6.4	–
303.15 K, m1 = 0.0925	0.6223 ± 0.0001	–	1104.6 ± 6.4	0.5669 ± 0.031
303.15 K, m1 = 0.1673	0.9485 ± 0.0001	–	1114 ± 6.5	0.6084 ± 0.033
303.15 K, m1 = 0.2872	1.407 ± 0.001	–	1129.8 ± 6.5	0.684 ± 0.036
303.15 K, m1 = 0.3228	1.534 ± 0.001	–	1133.5 ± 6.6	0.7005 ± 0.037
303.15 K, m1 = 0.4313	1.913 ± 0.001	–	1147 ± 6.6	0.7937 ± 0.041
303.15 K, m1 = 0.6444	2.541 ± 0.001	–	1173.3 ± 6.7	0.9348 ± 0.047
303.15 K, m1 = 1.059	3.367 ± 0.001	–	1217 ± 6.9	1.323 ± 0.063
303.15 K, m1 = 1.395	3.746 ± 0.001	–	1253.3 ± 7	1.732 ± 0.081
303.15 K, m1 = 1.717	3.979 ± 0.001	–	1277.6 ± 7.1	1.99 ± 0.092
303.15 K, m1 = 2	4.1 ± 0.001	–	1301.6 ± 7.2	2.362 ± 0.11
303.5 K, m1 = 0.4313	–	838.73 ± 22	–	–
303.55 K, m1 = 1.059	–	918.43 ± 48	–	–
303.55 K, m1 = 1.717	–	980.32 ± 62	–	–
303.9 K, m1 = 0.0542	–	788.92 ± 3.6	–	–
304.2 K, m1 = 0.0925	–	794.46 ± 4.8	–	–
304.55 K, m1 = 1.395	–	955.29 ± 42	–	–
304.85 K, m1 = 0.6444	–	864.55 ± 33	–	–
305.45 K, m1 = 0.2872	–	817.88 ± 14	–	–
305.5 K, m1 = 0.078	–	792.01 ± 4	–	–
305.5 K, m1 = 0.3228	–	821.98 ± 15	–	–
305.7 K, m1 = 0.1673	–	802.67 ± 8.3	–	–
305.75 K, m1 = 1.059	–	916.49 ± 44	–	–
305.95 K, m1 = 0.6444	–	863.6 ± 33	–	–
306 K, m1 = 1.717	–	978.23 ± 62	–	–
306.55 K, m1 = 0.4313	–	836.04 ± 22	–	–
306.6 K, m1 = 0.0542	–	786.39 ± 3.4	–	–
306.65 K, m1 = 2	–	1003.3 ± 72	–	–
306.8 K, m1 = 0.0925	–	791.94 ± 4.8	–	–
306.95 K, m1 = 1.395	–	953.22 ± 42	–	–
307.15 K, m1 = 0.078	–	790.37 ± 3.9	–	–
307.25 K, m1 = 0.2872	–	816.19 ± 14	–	–
307.3 K, m1 = 0.3228	–	820.29 ± 15	–	–
307.35 K, m1 = 0.1673	–	801.01 ± 8.3	–	–
308 K, m1 = 1.059	–	914.51 ± 51	–	–
308.05 K, m1 = 0.6444	–	861.75 ± 33	–	–
308.35 K, m1 = 0.0542	–	784.7 ± 2.9	–	–
308.45 K, m1 = 1.717	–	976.24 ± 62	–	–
308.5 K, m1 = 0.4313	–	834.26 ± 22	–	–
309.25 K, m1 = 2	–	1001.1 ± 72	–	–
309.3 K, m1 = 1.395	–	951.18 ± 42	–	–
309.35 K, m1 = 0.0925	–	789.49 ± 4.8	–	–
309.7 K, m1 = 0.078	–	787.95 ± 4	–	–
309.9 K, m1 = 0.2872	–	813.69 ± 13	–	–
309.95 K, m1 = 0.3228	–	817.77 ± 15	–	–
310.85 K, m1 = 1.717	–	974.13 ± 57	–	–
311.05 K, m1 = 0.0542	–	782.22 ± 3.3	–	–
311.05 K, m1 = 0.0925	–	787.88 ± 5.6	–	–
311.15 K, m1 = 0.6444	–	859.02 ± 33	–	–
311.4 K, m1 = 0.4313	–	831.61 ± 22	–	–
311.45 K, m1 = 1.059	–	911.67 ± 51	–	–
311.55 K, m1 = 1.395	–	949.18 ± 53	–	–
311.75 K, m1 = 0.1673	–	796.89 ± 8.8	–	–
311.75 K, m1 = 2	–	999.04 ± 72	–	–
312.55 K, m1 = 0.2872	–	811.13 ± 13	–	–
312.6 K, m1 = 0.3228	–	815.21 ± 15	–	–
313.15 K, m1 = 0.0542	0.4141 ± 0.0001	–	1062.7 ± 6.3	0.4735 ± 0.027
313.15 K, m1 = 0.078	0.6138 ± 0.0001	–	1069.7 ± 6.3	–
313.15 K, m1 = 0.0925	0.6801 ± 0.0001	–	1072.7 ± 6.3	0.4938 ± 0.028
313.15 K, m1 = 0.1673	1.04 ± 0.001	–	1082.2 ± 6.4	0.5284 ± 0.029
313.15 K, m1 = 0.2872	1.549 ± 0.001	–	1098.9 ± 6.4	0.5874 ± 0.032
313.15 K, m1 = 0.3228	1.691 ± 0.001	–	1102.5 ± 6.4	0.6082 ± 0.033
313.15 K, m1 = 0.4313	2.119 ± 0.001	–	1115.5 ± 6.5	0.6824 ± 0.036
313.15 K, m1 = 0.6444	2.844 ± 0.001	–	1141.6 ± 6.6	0.7966 ± 0.041
313.15 K, m1 = 1.059	3.813 ± 0.001	–	1185.5 ± 6.8	1.119 ± 0.055
313.15 K, m1 = 1.395	4.297 ± 0.001	–	1224.6 ± 6.9	1.445 ± 0.069
313.15 K, m1 = 1.717	4.592 ± 0.001	–	1249.9 ± 7	1.656 ± 0.078
313.15 K, m1 = 2	4.75 ± 0.001	–	1273.8 ± 7.1	1.945 ± 0.09
313.25 K, m1 = 0.4313	–	829.89 ± 22	–	–
313.25 K, m1 = 1.717	–	972.12 ± 52	–	–
313.35 K, m1 = 0.1673	–	795.24 ± 8.8	–	–
313.6 K, m1 = 0.0542	–	779.81 ± 3	–	–
313.75 K, m1 = 1.395	–	947.21 ± 42	–	–
314.05 K, m1 = 0.6444	–	856.37 ± 33	–	–
314.15 K, m1 = 2	–	996.96 ± 72	–	–
314.65 K, m1 = 1.059	–	908.74 ± 51	–	–
315.1 K, m1 = 0.2872	–	808.66 ± 13	–	–
315.2 K, m1 = 0.3228	–	812.71 ± 15	–	–
315.8 K, m1 = 0.1673	–	792.81 ± 8.9	–	–
315.85 K, m1 = 0.6444	–	854.66 ± 31	–	–
315.9 K, m1 = 1.395	–	945.34 ± 43	–	–
316 K, m1 = 0.4313	–	827.39 ± 22	–	–
316.1 K, m1 = 0.0542	–	777.42 ± 3	–	–
316.75 K, m1 = 1.717	–	969.14 ± 52	–	–
317.85 K, m1 = 1.059	–	906.01 ± 45	–	–
317.9 K, m1 = 2	–	993.97 ± 73	–	–
318.5 K, m1 = 0.0542	–	774.98 ± 3	–	–
318.5 K, m1 = 0.6444	–	851.96 ± 33	–	–
318.65 K, m1 = 0.4313	–	824.78 ± 23	–	–
319 K, m1 = 1.717	–	967.11 ± 52	–	–
319.3 K, m1 = 1.395	–	942.34 ± 43	–	–
320.05 K, m1 = 0.0542	–	773.35 ± 3	–	–
320.15 K, m1 = 2	–	991.84 ± 73	–	–
320.2 K, m1 = 0.6444	–	850.2 ± 33	–	–
320.65 K, m1 = 1.059	–	903.14 ± 43	–	–
321.15 K, m1 = 0.4313	–	822.18 ± 22	–	–
322.3 K, m1 = 2	–	989.79 ± 73	–	–
322.35 K, m1 = 1.717	–	964.07 ± 57	–	–
322.45 K, m1 = 1.059	–	901.27 ± 48	–	–
322.5 K, m1 = 1.395	–	939.42 ± 53	–	–
